Source: article PMC4774972, “Activity and Predicted Nephrotoxicity of Synthetic Antibiotics Based on Polymyxin B” (Journal of Medicinal Chemistry, 2016)
Values after ≈ are worked out from the molar mass of the structure shown. Read-outs that look alike come from different tables or passages of the source. Bridge positions count the residues as written; N and C are the ends. Square brackets hold non-standard residues; d marks the D form. Peptide text beside a SMILES is read from it. * marks the point of attachment. dDab = NCC[C@@H](N)C(=O)O; Octanoyl = CCCCCCCC(=O)*; Dab = NCC[C@H](N)C(=O)O

Assays:
[1] = tested on: A. baumannii CI Ptyela 100734512:2, PmxR; details: MIC A. baumannii CI Ptyela 100734512:2, PmxR (µg/mL)
[2] = tested on: K. pneumoniae CI 138-16357-20362, PmxR; details: MIC K. pneumoniae CI 138-16357-20362, PmxR (µg/mL)
[3] = tested on: K. pneumoniae CI Koprana 100650661:1, PmxR; details: MIC K. pneumoniae CI Koprana 100650661:1, PmxR (µg/mL)
[4] = tested on: P. aeruginosa FADDI-PA070, PmxR; details: MIC P. aeruginosa FADDI-PA070, PmxR (µg/mL)
[5] = tested on: P. aeruginosa PA9704, PmxR; details: MIC P. aeruginosa PA9704, PmxR (µg/mL)
[6] = tested on: S. aureus ATCC 25923, MSSA; details: MIC S. aureus ATCC 25923, MSSA (µg/mL)
[7] = tested on: HepG2; details: CC50 HepG2 (µM)
[8] = tested on: P. aeruginosa FADDI-PA070, PmxR; format: cell-based, Pseudomonas aeruginosa
Experimental: (§1) Bacteria were either obtained from American Type Culture Collection (ATCC; Manassas, VA, USA) or independent academic clinical isolate collections, as listed in Table S2. Bacteria were cultured in nutrient broth (NB; Bacto Laboratories, catalog no. 234000) or Muller Hinton broth (MHB; Bacto Laboratories, catalog no. 211443) at 37 °C overnight with shaking (∼180 rpm). A sample of each culture was then diluted 50-fold in fresh MHB and incubated at 37 °C for 1.5–3 h with shaking (∼180 rpm). Compound stock solutions were prepared as 0.64 or 2.56 mg/mL in water. The compounds, at twice the final desired concentration, were serially diluted 2-fold across the wells of 96-well plates (Polystyrene, Corning, catalogue No. 3370). Mid log phase bacterial cultures (after 1.5–3 h incubation) were diluted to a final concentration of 5 × 10^5 colony forming units (CFU)/mL, and 50 μL was added to each well giving a final compound concentration range of 32 μg/mL to 0.015 μg/mL (128–0.06 μg/mL for colistin and polymyxin B against the polymyxin resistant clinical isolates). MICs were determined visually after 18 h of incubation at 37 °C, with the MIC defined as the lowest compound concentration at which no bacterial growth was visible.
(§2) Table S2. Bacterial strains used for Minimum Inhibitory Concentration (MIC) […]
(§3) Organism Strain Strain description Strain Source
(§4) Escherichia coli ATCC 25922 FDA strain Seattle 1946 ATCC
(§5) Klebsiella pneumoniae ATCC 13883 Control strain ATCC
(§6) Klebsiella pneumoniae ATCC 700603 Multi-drug resistant ATCC
(§7) Klebsiella pneumoniae BAA-2146 Metallo-beta-lactamase- ATCC
(§8) Acinetobacter baumannii ATCC 19606 Type strain ATCC
(§9) Pseudomonas aeruginosa ATCC 27853 Type strain ATCC
(§10) Pseudomonas aeruginosa FADDI-PA070 Clinical isolate, Nation and Li labs, polymyxin resistant Monash University
(§11) Clinical isolate, Wang Hengzhuang, Pseudomonas aeruginosa PA9704 polymyxin resistant University Hospital of […]
(§12) Ptyela Clinical isolate, Ilias Karaiskos and Acinetobacter baumannii Carbapenem & Helen Giamarellou
(§13) Clinical isolate, Medicine, Hygeia
(§14) Klebsiella pneumoniae Koprana Carbapenem, & General Hospital, […]
(§15) Clinical isolate, (Instituto Dante […]
(§16) polymyxin resistant Cardiologia, São […]

[9] = tested on: P. aeruginosa PA9704, PmxR; format: cell-based, Pseudomonas aeruginosa
Experimental: as §1, §2, §3, §4, §5, §6, §7, §8, §9, §10, §11, §12, §13, §14, §15, §16

[10] = tested on: A. baumannii CI Ptyela 100734512:2, PmxR; assay: microbe, parasite or virus in culture; format: cell-based, Acinetobacter baumannii
Experimental: as §1, §2, §3, §4, §5, §6, §7, §8, §9, §10, §11, §12, §13, §14, §15, §16

[11] = tested on: K. pneumoniae CI 138-16357-20362, PmxR; assay: microbe, parasite or virus in culture; format: cell-based, Klebsiella pneumoniae
[12] = tested on: K. pneumoniae CI Koprana 100650661:1, PmxR; assay: microbe, parasite or virus in culture; format: cell-based, Klebsiella pneumoniae
[13] = tested on: S. aureus ATCC 25923, MSSA; assay: microbe, parasite or virus in culture; format: cell-based, Staphylococcus aureus; details: ATCC 25923, 18 h
Experimental: as §1, §2, §3, §4, §5, §6, §7, §8, §9, §10, §11, §12, §13, §14, §15, §16

[14] = tested on: HepG2 cells; assay: Cytotoxicity assay (resazurin assay); format: cell-based, human; details: 4000 cells/well, 24 h incubation with compound, fluorescence 560/590
Experimental: Cytotoxicity to HEK293 and HepG2 cells was determined using the resazurin assay.[67],[68] […] Compounds were then added into each well. After 24 h incubation, 5 μM resazurin was added per well and incubated at 37 °C for 2 h. Fluorescence intensity was then read using a Polarstar Omega with excitation/emission 560/590. The data were then analyzed using GraphPad Prism 6 software. CC50 values were determined using GraphPad Prism 6 software (Inc. La Jolla, CA).

[15] = tested on: primary human renal proximal tubule epithelial (hPT) cells; assay: Nephrotoxicity assay, GGT release; format: cell-based
Excerpt: Primary human renal proximal tubule epithelial (hPT) cells were isolated and used for in vitro prediction of drug-induced nephrotoxicity[63],[64],[69] by measuring the release of metabolism enzymes, LDH and GGT, as previously described.[70]

[16] = tested on: panel of predominantly G-ve bacteria; details: for most strains
[17] = tested on: A. baumannii ATCC 19606; details: MIC A. baumannii ATCC 19606 (µg/mL)
[18] = tested on: E. coli ATCC 25922; details: MIC E. coli ATCC 25922 (µg/mL)
[19] = tested on: K. pneumoniae ATCC 13883; details: MIC K. pneumoniae ATCC 13883 (µg/mL)
[20] = tested on: K. pneumoniae ATCC 700603, MDR; details: MIC K. pneumoniae ATCC 700603, MDR(µg/mL)
[21] = tested on: K. pneumoniae ATTC BAA-2146, NDM-1 pos; details: MIC K. pneumoniae ATTC BAA-2146, NDM-1 pos (µg/mL)
[22] = tested on: P. aeruginosa ATCC 27853; details: MIC P. aeruginosa ATCC 27853 (µg/mL)
[23] = tested on: E. coli ATCC 25922; assay: microbe, parasite or virus in culture; format: cell-based, Escherichia coli; details: ATCC 25922, 18 h
Experimental: as §1, §2, §3, §4, §5, §6, §7, §8, §9, §10, §11, §12, §13, §14, §15, §16

[24] = tested on: A. baumannii ATCC 19606; format: cell-based, Acinetobacter baumannii; details: ATCC 19606, 18 h
Experimental: as §1, §2, §3, §4, §5, §6, §7, §8, §9, §10, §11, §12, §13, §14, §15, §16

[25] = tested on: P. aeruginosa ATCC 27853; assay: microbe, parasite or virus in culture; format: cell-based, Pseudomonas aeruginosa; details: ATCC 27853, 18 h
Experimental: as §1, §2, §3, §4, §5, §6, §7, §8, §9, §10, §11, §12, §13, §14, §15, §16

[26] = tested on: K. pneumoniae ATCC 13883; assay: microbe, parasite or virus in culture; format: cell-based, Klebsiella pneumoniae; details: ATCC 13883, 18 h
[27] = polymyxin resistant clinical isolate, MHB, 5 × 10^5 CFU/mL, 18 h at 37 °C
[28] = carbapenem & polymyxin resistant clinical isolate, MHB, 5 × 10^5 CFU/mL, 18 h at 37 °C

Compound | MIC [1] | MIC [2] | MIC [3] | MIC [4] | MIC [5] | MIC [6] | CC50 [7] | MIC S. aureus ATCC 25923, MSSA [13] | HepG2 - CC50 [14] | MIC [17] | MIC [18] | MIC [19] | MIC E. coli ATCC 25922 [23] | MIC A. baumannii ATCC 19606 [24] | MIC P. aeruginosa FADDI-PA070, PmxR [8, 27] | MIC P. aeruginosa PA9704, PmxR [9, 27] | MIC A. baumannii CI Ptyela 100734512:2, PmxR [10, 28] | MIC K. pneumoniae ATCC 13883 [26] | MIC K. pneumoniae CI 138-16357-20362, PmxR [11, 28] | MIC K. pneumoniae CI Koprana 100650661:1, PmxR [12, 28] | also measured
CCCCCCCC(=O)N[C@@H](CCN)C(=O)N[C@H](C(=O)NCC(=O)N[C@H]1CCNC(=O)[C@H]([C@@H](C)O)NC(=O)[C@H](CCN)NC(=O)[C@H](CCN)NC(=O)[C@H](CC(C)C)NC(=O)[C@@H](Cc2ccccc2)NC(=O)[C@H](CCN)NC1=O)[C@@H](C)O [Compound 38] (Octanoyl-[Dab]TG[Dab][Dab][dF]L[Dab][Dab]T; lactam 4-C) | > 32 µg/mL | > 32 µg/mL | > 32 µg/mL | > 32 µg/mL | > 32 µg/mL | > 64 µg/mL | > 300 µM | >64 µg/mL | > 300 µM | – | – | – | – | – | – | – | – | – | – | – | MIC P. aeruginosa FADDI-PA070, PmxR ([8]; FADDI-PA070, PmxR, 18 h): >32 µg/mL; MIC P. aeruginosa PA9704, PmxR ([9]; PA9704, PmxR, 18 h): >32 µg/mL; MIC A. baumannii CI Ptyela 100734512:2, PmxR ([10]; CI Ptyela 100734512:2, PmxR, 18 h): >32 µg/mL; MIC K. pneumoniae CI 138-16357-20362, PmxR ([11]; CI 138-16357-20362, PmxR, 18 h): >32 µg/mL; MIC K. pneumoniae CI Koprana 100650661:1, PmxR ([12]; CI Koprana 100650661:1, PmxR, 18 h): >32 µg/mL; GGT release CC50 [15]: >128 µg/mL; MIC among the reference strains [16]: 0.5 to 2 µg/mL
CCCCCCCC(=O)N[C@H](C(=O)NCC(=O)N[C@H]1CCNC(=O)[C@H]([C@@H](C)O)NC(=O)[C@H](CCN)NC(=O)[C@H](CCN)NC(=O)[C@H](CC(C)C)NC(=O)[C@@H](Cc2ccccc2)NC(=O)[C@H](CCN)NC1=O)[C@@H](C)O [Compound 39] (Octanoyl-TG[Dab][Dab][dF]L[Dab][Dab]T; lactam 3-C) | > 32 µg/mL | > 32 µg/mL | > 32 µg/mL | > 32 µg/mL | > 32 µg/mL | > 32 µg/mL | > 300 µM | >32 µg/mL | >300 µM | > 32 µg/mL | 4 µg/mL (≈ 3.82 µM) | > 32 µg/mL | 4 µg/mL (≈ 3.82 µM) | >32 µg/mL | >32 µg/mL | >32 µg/mL | >32 µg/mL | >32 µg/mL | >32 µg/mL | >32 µg/mL | MIC [20]: > 32 µg/mL; MIC [21]: > 32 µg/mL; MIC [22]: 16 µg/mL (≈ 15.3 µM); MIC P. aeruginosa ATCC 27853 [25]: 16 µg/mL (≈ 15.3 µM)
CCCCCCCC(=O)N[C@H](CCN)C(=O)N[C@H](C(=O)NCC(=O)N[C@H]1CCNC(=O)[C@H]([C@@H](C)O)NC(=O)[C@H](CCN)NC(=O)[C@H](CCN)NC(=O)[C@H](CC(C)C)NC(=O)[C@@H](Cc2ccccc2)NC(=O)[C@H](CCN)NC1=O)[C@@H](C)O [Compound 40] (Octanoyl-[dDab]TG[Dab][Dab][dF]L[Dab][Dab]T; lactam 4-C) | > 32 µg/mL | > 32 µg/mL | > 32 µg/mL | > 32 µg/mL | > 32 µg/mL | > 64 µg/mL | > 300 µM | >64 µg/mL | >300 µM | > 64 µg/mL | > 32 µg/mL | > 32 µg/mL | >32 µg/mL | >64 µg/mL | >32 µg/mL | >32 µg/mL | >32 µg/mL | >32 µg/mL | >32 µg/mL | >32 µg/mL | –
